Test results as given in patent US11795404B2, “Composition for removing sulfur-containing compounds” (KURARAY CO., LTD., priority 2018, dated 2023).

What was measured:
[1] = Sulfur-containing compound removal reaction, BuSH in liquid hydrocarbon (GC-SCD); details: BuSH 50 μL (1000 ppm by volume) in kerosene 50 mL; aldehyde 250 μL; room temperature; reaction time 1 day
Method: In a 100 mL three-neck flask, 50 mL of kerosene was put and 50 μL (1000 ppm by volume, 0.46 mmol) of BuSH was added thereto to obtain a kerosene solution containing a sulfur-containing compound.
Next, 250 μL (2.59 mmol) of SAL and 250 μL (1.71 mmol) of DBU were added to the kerosene solution, and the solution was stirred at room temperature (20° C.±5° C., the same applies hereinafter) and at 800 rpm to perform a sulfur-containing compound removal reaction.
After 1-day reaction, the mercaptan concentration of the liquid phase in the three-neck flask was measured.
The mercaptan concentration of the liquid phase was measured using a calibration curve method by gas chromatography. The gas chromatography was performed under the following conditions.
Analyzer: GC-SCD (manufactured by Agilent Technologies Japan, Ltd.)
Detector: sulfur chemiluminescence detector (SCD)
Column: DB-sulfur SCD (length: 60 m, thickness: 4.2 μm, inner diameter: 0.32 mm) (manufactured by Agilent Technologies Japan, Ltd.)
Analytical conditions: inject. temp. 250° C., detect. temp. 250° C.
Temperature rise condition: 35° C. (kept for 3 minutes) (raised at 10° C./min)→250° C. (kept for 15 minutes)
Internal Standard Substance: diphenyl sulfide
A sulfur-containing compound removal reaction was performed in the same manner as in Example 3 except that crude oil was used in place of kerosene.

[2] = conjugate acid in water at 25° C.; cited from earlier work

SMILES	Removal rate [1] [%]	pKa [2]
CC(C)=CC=O [Comparative Example 1, Senecioaldehyde]	<10	–
C=CC=O [Comparative Example 4, Acrolein]	15	–
C1CCC2=NCCCN2CC1 [DBU, 1,8-Diazabicyclo[5.4.0]-7-undecene]	–	11.5
CN(C)CCN(C)CCN(C)C [PMDETA, N,N,N′,N″,N″-Pentamethydiethylenetriamine]	–	9.1
